Laboratory results reported in the kinase profiling compilation of Christmann-Franck et al. (2016).

What was measured:
Test in all cases: KINOMEscan competition binding
Conditions in all cases: compound 10.0 µM
TYRO3 (human) = TYRO3 (human) (UniProt Q06418)
CAMKK2 (human) = CAMKK2 (human) (UniProt Q96RR4)
RAF1 (human) = RAF1 (human) (UniProt P04049)
NTRK3 (human) = NTRK3 (human) (UniProt Q16288)
DCLK2 (human) = DCLK2 (human) (UniProt Q8N568)
ROCK2 (human) = ROCK2 (human) (UniProt O75116)
MAP4K4 (human) = MAP4K4 (human) (UniProt O95819)
BMPR2 (human) = BMPR2 (human) (UniProt Q13873)
BRSK2 (human) = BRSK2 (human) (UniProt Q8IWQ3)
GSK3B (human) = GSK3B (human) (UniProt P49841)
RPS6KA2 KD1 (human) = RPS6KA2 KD1 (human) (UniProt Q15349)
IKBKB (human) = IKBKB (human) (UniProt O14920)
CSNK2A1 (human) = CSNK2A1 (human) (UniProt P68400)
AURKC (human) = AURKC (human) (UniProt Q9UQB9)
IGF1R (human) = IGF1R (human) (UniProt P08069)
PDPK1 (human) = PDPK1 (human) (UniProt O15530)
AKT3 (human) = AKT3 (human) (UniProt Q9Y243)
DCLK3 (human) = DCLK3 (human) (UniProt Q9C098)
MARK2 (human) = MARK2 (human) (UniProt Q7KZI7)
MARK3 (human) = MARK3 (human) (UniProt P27448)
RPS6KA6 KD1 (human) = RPS6KA6 KD1 (human) (UniProt Q9UK32)
[1] = system: FLT3 (human), P36888 [ITD]
STK24 (human) = STK24 (human) (UniProt Q9Y6E0)
LIMK1 (human) = LIMK1 (human) (UniProt P53667)
FGFR3 (human) = FGFR3 (human) (UniProt P22607)
MERTK (human) = MERTK (human) (UniProt Q12866)
[2] = biological target: JAK3 JH1 catalytic (human) (UniProt P52333)
CDC42BPB (human) = CDC42BPB (human) (UniProt Q9Y5S2)
PKN2 (human) = PKN2 (human) (UniProt Q16513)
[3] = biological target: JAK1 JH1 catalytic (human) (UniProt P23458)
STK33 (human) = STK33 (human) (UniProt Q9BYT3)
CAMKK1 (human) = CAMKK1 (human) (UniProt Q8N5S9)
PRKCD (human) = PRKCD (human) (UniProt Q05655)
NUAK1 (human) = NUAK1 (human) (UniProt O60285)
MAPKAPK5 (human) = MAPKAPK5 (human) (UniProt Q8IW41)
BLK (human) = BLK (human) (UniProt P51451)
PAK2 (human) = PAK2 (human) (UniProt Q13177)
CSK (human) = CSK (human) (UniProt P41240)
PRKG2 (human) = PRKG2 (human) (UniProt Q13237)
ERBB4 (human) = ERBB4 (human) (UniProt Q15303)

Chain of MAP4K4 (human) (O95819 whole entry, looked up): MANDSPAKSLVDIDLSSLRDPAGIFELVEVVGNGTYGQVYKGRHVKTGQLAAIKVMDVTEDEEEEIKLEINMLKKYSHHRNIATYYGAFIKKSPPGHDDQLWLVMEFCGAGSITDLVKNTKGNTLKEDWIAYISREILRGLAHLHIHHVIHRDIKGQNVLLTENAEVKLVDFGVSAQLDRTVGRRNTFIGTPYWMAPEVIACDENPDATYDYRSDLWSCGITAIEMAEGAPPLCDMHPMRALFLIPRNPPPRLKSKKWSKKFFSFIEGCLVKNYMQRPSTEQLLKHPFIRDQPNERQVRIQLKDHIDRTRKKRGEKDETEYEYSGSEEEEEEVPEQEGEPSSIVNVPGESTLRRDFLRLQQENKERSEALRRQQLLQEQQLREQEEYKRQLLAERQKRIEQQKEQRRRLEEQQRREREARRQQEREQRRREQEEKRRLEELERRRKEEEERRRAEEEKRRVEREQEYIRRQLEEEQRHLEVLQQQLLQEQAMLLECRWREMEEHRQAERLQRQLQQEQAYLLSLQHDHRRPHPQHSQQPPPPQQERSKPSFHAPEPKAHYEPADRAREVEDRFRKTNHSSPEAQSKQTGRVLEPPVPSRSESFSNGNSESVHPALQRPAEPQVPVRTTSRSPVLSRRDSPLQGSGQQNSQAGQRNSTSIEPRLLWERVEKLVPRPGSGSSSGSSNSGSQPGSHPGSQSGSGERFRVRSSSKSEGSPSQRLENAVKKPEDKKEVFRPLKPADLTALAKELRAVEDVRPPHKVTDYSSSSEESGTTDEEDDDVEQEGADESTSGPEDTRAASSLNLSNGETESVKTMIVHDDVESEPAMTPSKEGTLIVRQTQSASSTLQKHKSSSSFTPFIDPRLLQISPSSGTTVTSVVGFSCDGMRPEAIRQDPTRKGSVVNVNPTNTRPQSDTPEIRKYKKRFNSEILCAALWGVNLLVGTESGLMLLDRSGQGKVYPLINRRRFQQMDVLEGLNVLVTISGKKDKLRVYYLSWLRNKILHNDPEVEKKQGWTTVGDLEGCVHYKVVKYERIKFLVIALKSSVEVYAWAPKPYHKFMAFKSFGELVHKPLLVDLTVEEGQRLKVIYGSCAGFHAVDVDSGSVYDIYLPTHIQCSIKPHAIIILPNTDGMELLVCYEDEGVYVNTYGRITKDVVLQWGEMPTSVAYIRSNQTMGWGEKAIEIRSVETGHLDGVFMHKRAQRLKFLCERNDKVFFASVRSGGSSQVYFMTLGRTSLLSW
Chain of LIMK1 (human) (P53667 whole entry, looked up): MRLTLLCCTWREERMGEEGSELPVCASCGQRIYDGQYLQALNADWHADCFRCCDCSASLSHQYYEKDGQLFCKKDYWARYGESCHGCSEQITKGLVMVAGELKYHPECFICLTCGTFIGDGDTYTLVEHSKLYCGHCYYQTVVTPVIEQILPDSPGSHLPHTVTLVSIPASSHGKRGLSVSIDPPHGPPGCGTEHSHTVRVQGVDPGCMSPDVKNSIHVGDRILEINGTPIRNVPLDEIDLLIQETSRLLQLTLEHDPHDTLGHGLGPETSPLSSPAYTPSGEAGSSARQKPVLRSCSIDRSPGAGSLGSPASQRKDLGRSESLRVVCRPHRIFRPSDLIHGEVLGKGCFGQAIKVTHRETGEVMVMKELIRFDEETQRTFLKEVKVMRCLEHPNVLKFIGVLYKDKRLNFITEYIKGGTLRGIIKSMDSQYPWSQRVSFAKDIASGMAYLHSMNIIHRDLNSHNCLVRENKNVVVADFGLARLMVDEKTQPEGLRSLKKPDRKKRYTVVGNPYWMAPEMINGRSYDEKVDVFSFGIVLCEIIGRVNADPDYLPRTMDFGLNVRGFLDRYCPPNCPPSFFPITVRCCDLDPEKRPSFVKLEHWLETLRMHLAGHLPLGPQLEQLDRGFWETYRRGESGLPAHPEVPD
Chain of FGFR3 (human) (P22607 whole entry, looked up): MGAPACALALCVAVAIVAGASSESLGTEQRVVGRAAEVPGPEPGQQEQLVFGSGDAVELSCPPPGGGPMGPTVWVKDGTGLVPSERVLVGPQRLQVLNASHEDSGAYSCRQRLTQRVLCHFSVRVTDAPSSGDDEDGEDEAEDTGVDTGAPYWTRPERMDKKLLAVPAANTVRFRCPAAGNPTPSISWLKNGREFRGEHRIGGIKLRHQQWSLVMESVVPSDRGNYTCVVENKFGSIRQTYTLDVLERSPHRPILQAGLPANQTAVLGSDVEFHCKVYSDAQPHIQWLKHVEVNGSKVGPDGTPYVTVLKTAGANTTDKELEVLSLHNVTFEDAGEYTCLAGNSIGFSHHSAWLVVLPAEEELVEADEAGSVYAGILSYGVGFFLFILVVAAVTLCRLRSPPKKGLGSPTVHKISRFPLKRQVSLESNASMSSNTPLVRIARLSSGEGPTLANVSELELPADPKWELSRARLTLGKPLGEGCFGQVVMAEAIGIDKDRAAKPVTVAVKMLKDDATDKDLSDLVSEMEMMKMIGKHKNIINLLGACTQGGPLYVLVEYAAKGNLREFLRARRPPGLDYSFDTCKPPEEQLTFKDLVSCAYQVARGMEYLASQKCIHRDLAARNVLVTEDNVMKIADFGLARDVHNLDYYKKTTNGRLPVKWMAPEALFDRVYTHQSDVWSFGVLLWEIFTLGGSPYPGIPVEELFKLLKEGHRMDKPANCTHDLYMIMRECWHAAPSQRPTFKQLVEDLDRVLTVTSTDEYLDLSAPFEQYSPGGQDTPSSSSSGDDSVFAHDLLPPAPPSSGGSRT
Chain of PRKG2 (human) (Q13237 whole entry, looked up): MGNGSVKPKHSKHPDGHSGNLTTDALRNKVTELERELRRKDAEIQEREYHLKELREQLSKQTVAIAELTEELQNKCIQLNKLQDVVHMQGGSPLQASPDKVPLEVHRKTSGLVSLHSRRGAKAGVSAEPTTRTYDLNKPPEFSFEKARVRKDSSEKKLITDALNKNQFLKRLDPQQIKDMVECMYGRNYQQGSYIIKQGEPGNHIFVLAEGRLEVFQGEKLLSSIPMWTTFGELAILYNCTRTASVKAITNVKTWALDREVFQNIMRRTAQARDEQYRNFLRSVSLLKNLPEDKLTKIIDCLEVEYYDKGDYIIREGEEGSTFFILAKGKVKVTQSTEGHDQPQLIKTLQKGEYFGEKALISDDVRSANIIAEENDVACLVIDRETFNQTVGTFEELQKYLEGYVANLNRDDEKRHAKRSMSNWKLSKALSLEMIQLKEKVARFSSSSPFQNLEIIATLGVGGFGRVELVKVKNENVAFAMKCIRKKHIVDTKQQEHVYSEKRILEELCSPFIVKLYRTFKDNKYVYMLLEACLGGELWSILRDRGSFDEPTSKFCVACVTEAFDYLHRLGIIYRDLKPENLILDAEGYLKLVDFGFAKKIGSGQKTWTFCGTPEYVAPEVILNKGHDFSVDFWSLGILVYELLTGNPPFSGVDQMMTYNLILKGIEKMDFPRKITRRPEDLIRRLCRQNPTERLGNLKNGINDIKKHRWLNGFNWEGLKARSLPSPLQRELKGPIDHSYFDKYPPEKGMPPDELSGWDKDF
Chain of MAPKAPK5 (human) (Q8IW41 whole entry, looked up): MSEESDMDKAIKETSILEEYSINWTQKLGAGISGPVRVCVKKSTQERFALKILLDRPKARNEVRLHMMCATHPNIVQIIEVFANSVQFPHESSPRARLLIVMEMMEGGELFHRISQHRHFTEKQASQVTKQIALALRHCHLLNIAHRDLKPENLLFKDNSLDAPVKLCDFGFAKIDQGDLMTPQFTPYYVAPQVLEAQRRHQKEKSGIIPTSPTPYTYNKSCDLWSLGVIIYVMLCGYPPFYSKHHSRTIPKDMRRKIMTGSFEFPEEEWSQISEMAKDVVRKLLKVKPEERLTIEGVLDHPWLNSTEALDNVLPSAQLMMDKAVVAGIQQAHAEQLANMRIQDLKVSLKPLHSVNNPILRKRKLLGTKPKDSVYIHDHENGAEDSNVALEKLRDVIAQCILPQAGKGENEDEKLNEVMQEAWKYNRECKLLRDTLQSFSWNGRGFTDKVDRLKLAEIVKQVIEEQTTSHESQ
Chain of TYRO3 (human) (Q06418 whole entry, looked up): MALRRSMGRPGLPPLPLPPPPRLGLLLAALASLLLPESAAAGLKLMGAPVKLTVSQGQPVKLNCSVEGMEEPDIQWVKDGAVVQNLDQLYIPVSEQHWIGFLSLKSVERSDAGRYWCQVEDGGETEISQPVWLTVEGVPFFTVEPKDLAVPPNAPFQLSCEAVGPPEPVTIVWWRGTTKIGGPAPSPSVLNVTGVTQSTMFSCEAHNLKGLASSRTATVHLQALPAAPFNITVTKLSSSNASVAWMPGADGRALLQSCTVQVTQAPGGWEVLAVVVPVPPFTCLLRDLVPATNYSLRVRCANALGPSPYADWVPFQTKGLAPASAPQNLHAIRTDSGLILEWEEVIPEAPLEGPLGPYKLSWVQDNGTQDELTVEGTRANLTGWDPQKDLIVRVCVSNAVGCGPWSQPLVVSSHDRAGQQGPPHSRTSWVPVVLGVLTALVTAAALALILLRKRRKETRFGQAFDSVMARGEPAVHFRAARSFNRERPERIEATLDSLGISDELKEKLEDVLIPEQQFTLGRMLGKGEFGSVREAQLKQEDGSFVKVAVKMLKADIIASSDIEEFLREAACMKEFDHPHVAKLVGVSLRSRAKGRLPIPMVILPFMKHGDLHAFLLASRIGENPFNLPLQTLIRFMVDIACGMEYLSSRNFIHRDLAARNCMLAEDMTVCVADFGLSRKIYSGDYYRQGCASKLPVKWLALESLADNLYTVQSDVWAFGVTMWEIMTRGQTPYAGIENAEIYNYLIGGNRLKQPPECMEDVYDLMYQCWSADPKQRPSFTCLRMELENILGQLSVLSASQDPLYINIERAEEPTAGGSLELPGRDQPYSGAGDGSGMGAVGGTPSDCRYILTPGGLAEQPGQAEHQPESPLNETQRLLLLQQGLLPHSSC

Structure (SMILES)	kinase still bound, per cent of control (TYRO3 (human)) [%]	kinase still bound, per cent of control (CAMKK2 (human)) [%]	kinase still bound, per cent of control (RAF1 (human)) [%]	kinase still bound, per cent of control (NTRK3 (human)) [%]	kinase still bound, per cent of control (DCLK2 (human)) [%]	kinase still bound, per cent of control (ROCK2 (human)) [%]	kinase still bound, per cent of control (MAP4K4 (human)) [%]	kinase still bound, per cent of control (BMPR2 (human)) [%]	kinase still bound, per cent of control (BRSK2 (human)) [%]	kinase still bound, per cent of control (GSK3B (human)) [%]	kinase still bound, per cent of control (RPS6KA2 KD1 (human)) [%]	kinase still bound, per cent of control (IKBKB (human)) [%]	kinase still bound, per cent of control (CSNK2A1 (human)) [%]	kinase still bound, per cent of control (AURKC (human)) [%]	kinase still bound, per cent of control (IGF1R (human)) [%]	kinase still bound, per cent of control (PDPK1 (human)) [%]	kinase still bound, per cent of control (AKT3 (human)) [%]	kinase still bound, per cent of control (DCLK3 (human)) [%]	kinase still bound, per cent of control (MARK2 (human)) [%]	kinase still bound, per cent of control (MARK3 (human)) [%]	other results
O=C(NC1CC1)c1cccc(-c2ccc3c(NC(=O)C4CC4)n[nH]c3c2)c1	100	94	78	44	100	53	84	91	74	97	96	78	62	8.6	100	81	100	100	45	75	kinase still bound, per cent of control (RPS6KA6 KD1 (human)): 91%; kinase still bound, per cent of control [1]: 30%; kinase still bound, per cent of control (STK24 (human)): 82%; kinase still bound, per cent of control (LIMK1 (human)): 100%; kinase still bound, per cent of control (FGFR3 (human)): 100%; kinase still bound, per cent of control (MERTK (human)): 71%; kinase still bound, per cent of control [2]: 27%; kinase still bound, per cent of control (CDC42BPB (human)): 76%; kinase still bound, per cent of control (PKN2 (human)): 78%; kinase still bound, per cent of control [3]: 100%; kinase still bound, per cent of control (STK33 (human)): 100%; kinase still bound, per cent of control (CAMKK1 (human)): 37%; kinase still bound, per cent of control (PRKCD (human)): 100%; kinase still bound, per cent of control (NUAK1 (human)): 100%; kinase still bound, per cent of control (MAPKAPK5 (human)): 99%; kinase still bound, per cent of control (BLK (human)): 100%; kinase still bound, per cent of control (PAK2 (human)): 69%; kinase still bound, per cent of control (CSK (human)): 84%; kinase still bound, per cent of control (PRKG2 (human)): 72%; kinase still bound, per cent of control (ERBB4 (human)): 95%
Cc1cc([C@@H](C)Nc2ccccc2C(=O)O)c2nc(N3CCOCC3)cc(=O)n2c1	100	100	100	98	100	91	97	85	100	100	97	90	100	93	100	100	100	85	90	89	kinase still bound, per cent of control (RPS6KA6 KD1 (human)): 71%; kinase still bound, per cent of control [1]: 53%; kinase still bound, per cent of control (STK24 (human)): 100%; kinase still bound, per cent of control (LIMK1 (human)): 100%; kinase still bound, per cent of control (FGFR3 (human)): 83%; kinase still bound, per cent of control (MERTK (human)): 100%; kinase still bound, per cent of control [2]: 94%; kinase still bound, per cent of control (CDC42BPB (human)): 100%; kinase still bound, per cent of control (PKN2 (human)): 98%; kinase still bound, per cent of control [3]: 100%; kinase still bound, per cent of control (STK33 (human)): 100%; kinase still bound, per cent of control (CAMKK1 (human)): 98%; kinase still bound, per cent of control (PRKCD (human)): 82%; kinase still bound, per cent of control (NUAK1 (human)): 100%; kinase still bound, per cent of control (MAPKAPK5 (human)): 100%; kinase still bound, per cent of control (BLK (human)): 99%; kinase still bound, per cent of control (PAK2 (human)): 100%; kinase still bound, per cent of control (CSK (human)): 100%; kinase still bound, per cent of control (PRKG2 (human)): 98%; kinase still bound, per cent of control (ERBB4 (human)): 100%
